The values that follow come from patent US12540143B2, “Methods and compositions for targeted protein degradation” (Ranok Therapeutics (Hangzhou) Co. Ltd., priority 2019, dated 2026).

Structures are written as SMILES.

The test system of the first series is MV4-11 cells. Description: MV4-11 Cytotoxicity Assay. It counts as cell-based, human. The following applies: 72 hr, CCK-8; read-out: MV4-11 cytotoxicity.
On to `CCn1c(=O)/c(=C2\Sc3ccccc3N2C)s/c1=C\c1cccc[n+]1CCNC(=O)C[C@@H]1N=C(c2ccc(Cl)cc2)c2c(sc(C)c2C)-n2c(C)nnc21` [Compound 8], for which the IC50 is more than 1000 nM.

Still in this series, the particulars now being: Homo sapiens, MV4-11, 72 h, read-out: MV4-11 cytotoxicity.
For `CCc1cc(-c2nnc(C(=O)NCC(F)(F)F)n2-c2ccc(CN3CCN(CC4CCN(C(=O)C[C@@H]5N=C(c6ccc(Cl)cc6)c6c(sc(C)c6C)-n6c(C)nnc65)CC4)CC3)cc2)c(O)cc1O` [Compound 14, 4-(4-((4-((1-(2-((6S)-4-(4-chlorophenyl)-2,3,9-trimethyl-6H-thieno[3,2-f][1,2,4]triazolo[4,3-a][1,4]diazepin-6-yl)acetyl)piperidin-4-yl)methyl)piperazin-1-yl)methyl)phenyl)-5-(5-ethyl-2,4-dihydroxyphenyl)-N-(2,2,2-trifluoroethyl)-4H-1,2,4-triazole-3-carboxamide, trifluoroacetic acid], the IC50 was less than 100 nM.

As to `CCc1cc(-c2nnc(C(N)=O)n2-c2ccc(CN3CCN(CC4CCN(C(=O)C[C@@H]5N=C(c6ccc(Cl)cc6)c6c(sc(C)c6C)-n6c(C)nnc65)CC4)CC3)cc2)c(O)cc1O` [Compound 106, (S)-4-(4-((4-((1-(2-(4-(4-chlorophenyl)-2,3,9-trimethyl-6H-thieno[3,2-f][1,2,4]triazolo[4,3-a][1,4]diazepin-6-yl)acetyl)piperidin-4-yl)methyl)piperazin-1-yl)methyl)phenyl)-5-(5-ethyl-2,4-dihydroxyphenyl)-4H-1,2,4-triazole-3-carboxamide, trifluoroacetic acid], the IC50 is less than 100 nM.

The same series, now with this note: Homo sapiens, MV4-11; 72 hr, CCK-8; read-out: MV4-11 cytotoxicity.
On to `Cc1sc2c(c1C)C(c1ccc(Cl)cc1)=N[C@@H](CCN(C)CCOc1ccc(-n3c(O)nnc3-c3cc(C(C)C)c(O)cc3O)cc1)c1nnc(C)n1-2` [Compound 65, (S)-4-(4-(4-(2-((2-(4-(4-chlorophenyl)-2,3,9-trimethyl-6H-thieno[3,2-f][1,2,4]triazolo[4,3-a][1,4]diazepin-6-yl)ethyl)(methyl)amino)ethoxy)phenyl)-5-hydroxy-4H-1,2,4-triazol-3-yl)-6-isopropylbenzene-1,3-diol], for which the IC50 lay in the range of 100 to 1000 nM.

Regarding `CCN(Cc1ccc(OCCCNC(=O)C[C@@H]2N=C(c3ccc(Cl)cc3)c3c(sc(C)c3C)-n3c(C)nnc32)cc1)Cc1ccc(-n2c(C(=O)NCC(F)(F)F)nnc2-c2cc(C(C)C)c(O)cc2O)cc1` [Compound 102, (S)-4-(4-(((4-(3-(2-(4-(4-chlorophenyl)-2,3,9-trimethyl-6H-thieno[3,2-f][1,2,4]triazolo[4,3-a][1,4]diazepin-6-yl)acetamido)propoxy)benzyl)(ethyl)amino)methyl)phenyl)-5-(2,4-dihydroxy-5-isopropylphenyl)-N-(2,2,2-trifluoroethyl)-4H-1,2,4-triazole-3-carboxamide, trifluoroacetic acid], the IC50 was less than 100 nM.

With `Cc1sc2c(c1C)C(c1ccc(Cl)cc1)=N[C@@H](CC(=O)N1CCC(N3CCN(Cc4ccc(-n5c(O)nnc5-c5cc(C(C)C)c(O)cc5O)cc4)CC3)CC1)c1nnc(C)n1-2` [Compound 42, (S)-2-(4-(4-chlorophenyl)-2,3,9-trimethyl-6H-thieno[3,2-f][1,2,4]triazolo[4,3-a][1,4]diazepin-6-yl)-1-(4-(4-(4-(3-(2,4-dihydroxy-5-isopropylphenyl)-5-hydroxy-4H-1,2,4-triazol-4-yl)benzyl)piperazin-1-yl)piperidin-1-yl)ethan-1-one, trifluoroacetic acid], the IC50 was less than 100 nM.

In the case of `Cc1sc2c(c1C)C(c1ccc(Cl)cc1)=N[C@@H](CC(=O)N1CCC(CN3CCC(Cc4ccc(-n5c(C(=O)NCC(F)(F)F)nnc5-c5cc(C(C)C)c(O)cc5O)cc4)CC3)CC1)c1nnc(C)n1-2` [Compound 85, (S)-4-(4-((1-((1-(2-(4-(4-chlorophenyl)-2,3,9-trimethyl-6H-thieno[3,2-f][1,2,4]triazolo[4,3-a][1,4]diazepin-6-yl)acetyl)piperidin-4-yl)methyl)piperidin-4-yl)methyl)phenyl)-5-(2,4-dihydroxy-5-isopropylphenyl)-N-(2,2,2-trifluoroethyl)-4H-1,2,4-triazole-3-carboxamide, formic acid], the IC50 is less than 100 nM.

As to `Cc1sc2c(c1C)C(c1ccc(Cl)cc1)=N[C@@H](CC(=O)N1CCC(CN3CCN(Cc4ccc(-n5c(C(=O)NC(C)C)nnc5-c5ccc(O)cc5O)cc4)CC3)CC1)c1nnc(C)n1-2` [Compound 119, (S)-4-(4-((4-((1-(2-(4-(4-chlorophenyl)-2,3,9-trimethyl-6H-thieno[3,2-f][1,2,4]triazolo[4,3-a][1,4]diazepin-6-yl)acetyl)piperidin-4-yl)methyl)piperazin-1-yl)methyl)phenyl)-5-(2,4-dihydroxyphenyl)-N-isopropyl-4H-1,2,4-triazole-3-carboxamide, trifluoroacetic acid], the IC50 was less than 100 nM.

On to `Cc1sc2c(c1C)C(c1ccc(Cl)cc1)=N[C@@H](CCNCCOc1ccc(-n3c(O)nnc3-c3cc(C(C)C)c(O)cc3O)cc1)c1nnc(C)n1-2` [Compound 62, (S)-4-(4-(4-(2-((2-(4-(4-chlorophenyl)-2,3,9-trimethyl-6H-thieno[3,2-f][1,2,4]triazolo[4,3-a][1,4]diazepin-6-yl)ethyl)amino)ethoxy)phenyl)-5-hydroxy-4H-1,2,4-triazol-3-yl)-6-isopropylbenzene-1,3-diol, trifluoroacetic acid], for which the IC50 was in the range of 100 to 1000 nM.

Consider `Cc1sc2c(c1C)C(c1ccc(Cl)cc1)=N[C@@H](CC(=O)N1CCC(CCN3CCC(Cc4ccc(-n5c(O)nnc5-c5cc(C(C)C)c(O)cc5O)cc4)CC3)CC1)c1nnc(C)n1-2` [Compound 80, (S)-2-(4-(4-chlorophenyl)-2,3,9-trimethyl-6H-thieno[3,2-f][1,2,4]triazolo[4,3-a][1,4]diazepin-6-yl)-1-(4-(2-(4-(4-(3-(2,4-dihydroxy-5-isopropylphenyl)-5-hydroxy-4H-1,2,4-triazol-4-yl)benzyl)piperidin-1-yl)ethyl)piperidin-1-yl)ethan-1-one, trifluoroacetic acid], for which the IC50 was less than 100 nM.

`Cc1sc2c(c1C)C(c1ccc(Cl)cc1)=N[C@@H](CC(=O)N(C)[C@H](C)c1ccc(CN3CCN(Cc4ccc(-n5c(O)nnc5-c5cc(C(C)C)c(O)cc5O)cc4)CC3)cc1)c1nnc(C)n1-2` [Compound 92, 2-((S)-4-(4-chlorophenyl)-2,3,9-trimethyl-6H-thieno[3,2-f][1,2,4]triazolo[4,3-a][1,4]diazepin-6-yl)-N—((R)-1-(4-((4-(4-(3-(2,4-dihydroxy-5-isopropylphenyl)-5-hydroxy-4H-1,2,4-triazol-4-yl)benzyl)piperazin-1-yl)methyl)phenyl)ethyl)-N-methylacetamide, trifluoroacetic acid]: the IC50 lay within 100 to 1000 nM.

In the case of `Cc1cc(-c2nnc(C(=O)NCC(F)(F)F)n2-c2ccc(CN3CCN(CC4CCN(C(=O)C[C@@H]5N=C(c6ccc(Cl)cc6)c6c(sc(C)c6C)-n6c(C)nnc65)CC4)CC3)cc2)c(O)cc1O` [Compound 15, 4-(4-((4-((1-(2-((6S)-4-(4-chlorophenyl)-2,3,9-trimethyl-6H-thieno[3,2-f][1,2,4]triazolo[4,3-a][1,4]diazepin-6-yl)acetyl)piperidin-4-yl)methyl)piperazin-1-yl)methyl)phenyl)-5-(2,4-dihydroxy-5-methylphenyl)-N-(2,2,2-trifluoroethyl)-4H-1,2,4-triazole-3-carboxamide, trifluoroacetic acid], the IC50 was less than 100 nM.
